The record followed here is patent publication US8080547B2, “Triazolopyridine carboxamide derivatives and triazolopyrimidine carboxamide derivatives, preparation thereof and therapeutic use thereof” (Sanofi-Aventis, priority 2007, dated 2011).

Data set [1] deals with T1, MGL (monoacyl glycerol lipase) enzyme (Mus musculus, UniProt O35678).
T1 construct: the source of MGL enzyme is a mouse brain homogenate from which the cerebellum and the medulla oblongata have been removed; from tissue; host or cells: mouse brain homogenate (cerebellum and medulla oblongata removed)
T1 sequence (O35678 1-303): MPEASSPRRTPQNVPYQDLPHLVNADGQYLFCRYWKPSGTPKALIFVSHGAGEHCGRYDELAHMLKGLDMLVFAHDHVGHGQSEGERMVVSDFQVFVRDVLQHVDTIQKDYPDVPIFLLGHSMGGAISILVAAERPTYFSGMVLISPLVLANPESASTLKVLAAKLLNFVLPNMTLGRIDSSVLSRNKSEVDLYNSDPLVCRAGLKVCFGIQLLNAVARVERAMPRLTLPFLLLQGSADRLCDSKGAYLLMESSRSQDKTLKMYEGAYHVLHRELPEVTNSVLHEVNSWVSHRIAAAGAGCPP
Kind of data set: radioenzymatic assay of [3H] 2-OG hydrolysis by MGL. In kind it is biochemical. As to conditions: mouse brain homogenate; 20 min preincubation; 50 μM 2-OG; read-out: IC50 (concentration inhibiting 50% of the control enzyme activity of MGL). How it is done: Tests comprised measuring the activity, in vitro, of the compounds of the invention on the MGL enzyme.
The inhibitory activity was measured in a radioenzymatic assay based on measuring the product of hydrolysis of 2-oleoyl glycerol ([^3H] 2-OG) by MGL. The products of hydrolysis of [^3H] 2-OG, labeled on the glycerol, are oleic acid and [^3H]glycerol, and the source of MGL enzyme is a mouse brain homogenate from which the cerebellum and the medulla oblongata have been removed. The mouse brains are removed, and stored at −80° C. until they are used or homogenized immediately for twice 5 seconds using a Precellys apparatus at 5000 rpm (Bertin) in a 10 mM Tris-HCl, 150 mM NaCl, 1 mM EDTA buffer (pH 8) at 4° C. The concentration of the homogenates is then adjusted to 7.5 μg/μl.
(§1) The dilution series of the compounds is prepared from stock solutions at 20 mM in 100% DMSO. […]
Assaying of the MGL activity is carried out in a 96-well microplate in a final reaction volume of 100 μl. […] After stirring for 10 minutes, the microplate is centrifuged for 15 minutes at 4000 g and a 30 μl aliquot of the aqueous phase containing the [^3H]glycerol produced is removed and then counted for 5 minutes by liquid scintillation (Wallac 1450 Microbeta). […]

Data set [2] deals with T2, FAAH (Fatty Acid Amide Hydrolase) enzyme (Mus musculus, UniProt O08914).
T2 construct: the source of FAAH enzyme is a mouse brain homogenate from which the cerebellum and the medulla oblongata have been removed; from tissue; host or cells: mouse brain homogenate (cerebellum and medulla oblongata removed)
T2 sequence (O08914 1-579): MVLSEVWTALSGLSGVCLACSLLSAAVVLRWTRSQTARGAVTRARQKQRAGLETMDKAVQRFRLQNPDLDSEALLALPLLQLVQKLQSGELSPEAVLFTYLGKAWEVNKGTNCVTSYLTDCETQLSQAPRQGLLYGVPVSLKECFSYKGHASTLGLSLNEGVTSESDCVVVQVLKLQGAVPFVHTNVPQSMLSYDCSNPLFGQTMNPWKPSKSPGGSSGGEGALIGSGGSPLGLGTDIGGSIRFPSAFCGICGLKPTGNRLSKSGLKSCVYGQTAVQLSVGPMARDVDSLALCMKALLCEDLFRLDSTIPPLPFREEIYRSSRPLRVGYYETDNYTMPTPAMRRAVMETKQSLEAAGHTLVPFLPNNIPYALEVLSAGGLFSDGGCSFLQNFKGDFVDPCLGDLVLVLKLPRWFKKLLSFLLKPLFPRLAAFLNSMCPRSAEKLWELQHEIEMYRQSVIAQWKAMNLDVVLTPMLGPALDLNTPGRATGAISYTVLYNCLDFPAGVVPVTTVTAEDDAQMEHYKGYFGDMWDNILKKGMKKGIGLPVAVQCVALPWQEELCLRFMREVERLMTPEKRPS
The experiment in a line: radioenzymatic assay of [3H]anandamide hydrolysis by FAAH. In kind it is biochemical. As to conditions: mouse brain homogenate; 20 min preincubation; 10 μM anandamide; read-out: IC50 (concentration which inhibits 50% of the control enzyme activity of FAAH). How it is done:
Tests comprised measuring the activity, in vitro, of the compounds of the invention on the FAAH enzyme.
The inhibitory activity was measured in a radioenzymatic assay based on measuring the product of hydrolysis (ethanolamine [1-3H]) of anandamide by FAAH (Life Science (1995), 56, 1999-2005 and Journal of Pharmacology and Experimented Therapeutics (1997), 283, 729-734). The products of hydrolysis of [^3H]anandamide, labeled on ethanolamine, are arachidonic acid and [^3H]ethanolamine and the source of FAAH enzyme is a mouse brain homogenate from which the cerebellum and the medulla oblongata have been removed. The mouse brains are removed, and stored at −80° C. until they are used or homogenized immediately for twice 5 seconds using a Precellys apparatus at 5000 rpm (Bertin) in a 10 mM Tris-HCl, 150 mM NaCl, 1 mM EDTA buffer (pH 8) at 4° C. The concentration of the homogenates is then adjusted to 20 μg/μl.
as §1
Assaying of the FAAH activity is carried out in a 96-well microplate in a final reaction volume of 70 μl. […] After stirring for 10 minutes, the microplate is centrifuged for 15 minutes at 4000 g and a 30 μl aliquot of the aqueous phase containing the [^3H]ethanolamine produced is removed and then counted for 5 minutes by liquid scintillation (Wallac 1450 Microbeta).

Structures are written as SMILES.

For the compound `COc1ccc(N2CCN(C(=O)n3nnc4ccc(N5CCCC5)nc43)CC2)cc1` [Compound No. 2, [4-(4-Methoxyphenyl)piperazin-1-yl](5-pyrrolidin-1-yl[1,2,3]triazolo[4,5-b]-pyridin-3-yl)methanone], the melting point (as a rule, the temperature of the solid-liquid transition) fell in the range of 138 to 140 °C.
`O=C(N1CCN(c2cccc(C(F)(F)F)c2)CC1)n1nnc2ccc(N3CCOCC3)nc21` [compound 1, (5-morpholin-4-yl[1,2,3]triazolo[4,5-b]pyridin-3-yl)[4-(3-trifluoromethylphenyl)piperazin-1-yl]methanone] registered a melting point of 172 to 174 °C. In data set [1], the IC50 was 4 nM. For the same compound, the IC50 in data set [2] was determined as 10 nM.
In the case of `O=C(N1CCN(c2cccc(C(F)(F)F)c2)CC1)n1nnc2ccc(N3CCCC3)nc21` [compound 3, (5-pyrrolidin-1-yl[1,2,3]triazolo[4,5-b]pyridin-3-yl)[4-(3-trifluoromethylphenyl)piperazin-1-yl]methanone], the melting point is 158 to 160 °C.
The same measure, in the same setting: with `O=C(N1CCN(c2ccc(C(F)(F)F)cc2)CC1)n1nnc2ccc(N3CCC(F)(F)C3)nc21` [compound 4, [5-(3,3-difluoropyrrolidin-1-yl)[1,2,3]triazolo[4,5-b]pyridin-3-yl)[4-(4-trifluoromethylphenyl)piperazin-1-yl]methanone] the figure was 141 to 143 °C.
